Measured values published in PubChem BioAssay AID1996.
≈ marks a conversion by molar mass, not a printed value.

Conditions: buffer; pH 7.4; 200.0 µM

SMILES	solubility kinetic
CC(=O)Nc1ccc(S(=O)(=O)Nc2nccc(C)n2)cc1	> 46 µg/mL
Cc1cc(NC(=O)COc2ccccc2)ccc1Cl	1.9 µg/mL (≈ 6.89 µM)
CN(CC(=O)Nc1cccc(F)c1)C(=O)c1ccc(-c2ccc(Cl)cc2)o1	5.6 µg/mL (≈ 14.5 µM)
CCN(CC)C(=O)Oc1ccc(Cl)c2cccnc12	40.7 µg/mL (≈ 146 µM)
Cc1nc(/C(=N/O)C(N)=O)cs1	> 27.8 µg/mL
CC(=O)NC(CC(=O)NCCOc1ccccc1F)c1ccccc1 (stereo unspecified)	> 51.7 µg/mL
C=CCN(C(=O)COC(=O)c1cc[n+]([O-])cc1)c1nc(-c2ccccc2)cs1	6.1 µg/mL (≈ 15.4 µM)
CCC(OC(=O)c1nsc(Cl)c1Cl)C(=O)NC(C)(C)C (stereo unspecified)	46.6 µg/mL (≈ 137 µM)
COCc1cc(=O)[nH]c(SCCS(=O)(=O)c2ccc(C)cc2)n1	> 53.2 µg/mL
Cc1[nH]c2ccccc2c1/C=N/NC(=O)c1ccccc1	> 41.6 µg/mL
Cc1cc(C)c(OCC(=O)OC(C)C(=O)NC2CC2)c(C)c1 (stereo unspecified)	> 45.8 µg/mL
COC(=O)c1sc(NC(=O)c2cc(C)on2)nc1C	35.5 µg/mL (≈ 126 µM)
COc1cc(NC(=O)COC(=O)CCc2nc3ccccc3c(=O)[nH]2)cc(OC)c1	60.7 µg/mL (≈ 148 µM)
CCc1ccccc1OCCCN1CCCC1.O=C(O)C(=O)O	43.9 µg/mL
Nc1nc(SCCO)[nH]c(=O)c1NC(=O)c1ccco1	> 44.4 µg/mL
O=C1CN(C(=O)COC(=O)c2cccs2)c2ccccc2N1	29.2 µg/mL (≈ 92.3 µM)
O=C(Nc1cc(S(=O)(=O)Nc2ccccc2F)ccc1Cl)c1ccc(F)cc1F	2.5 µg/mL (≈ 5.67 µM)
Cc1cccc(N(C)S(=O)(=O)c2c(C)noc2C)c1	37.1 µg/mL (≈ 132 µM)
Cl.OCCNCc1cccc(Br)c1	> 40 µg/mL
O=C(NC1CCCCC1)Oc1cc2oc(=O)sc2cc1Cl	10.1 µg/mL (≈ 30.8 µM)
Cc1cc(C)c2c(CC(=O)NCCc3ccccc3)coc2c1	< 0.7 µg/mL
O=C(NCCCNC(=O)c1ccco1)c1ccc(Cl)cc1	> 46 µg/mL
Cc1ccccc1OCCCCn1c(CO)nc2ccccc21	29.2 µg/mL (≈ 94.1 µM)
O=C(O)c1cccnc1SCc1cccc(Br)c1	> 48.6 µg/mL
Cc1ccc(S(=O)(=O)NCC(=O)OCC(=O)N2CC(=O)Nc3ccccc32)cc1	> 62.6 µg/mL
CCN(CC)CC(O)Cn1c(-c2ccccc2Cl)nc2ccccc21 (stereo unspecified)	> 53.7 µg/mL
Cc1cccc(C(=O)OCC(=O)NCC(C)C)c1O	13.6 µg/mL (≈ 51.3 µM)

SMILES	solubility kinetic
COc1ccc(NCC(=O)N/N=C/C(C)c2ccccc2)cc1 (stereo unspecified)	> 46.7 µg/mL
Cc1cccc(C)c1C(=NCCN(C)C)c1ccccc1.Cl	> 53 µg/mL
O=C1c2ccccc2C(=O)N1CC(O)COc1ccccc1Cl (stereo unspecified)	44 µg/mL (≈ 133 µM)
O=C(CCCCCN1C(=O)c2ccccc2C1=O)Nc1cccc(O)c1	38.4 µg/mL (≈ 109 µM)
Cc1c(CCO)c(=O)n2c([nH]c3ccccc32)c1C#N	19 µg/mL (≈ 71.1 µM)
O=C(Nc1cnccn1)c1ccc(Cl)cc1	34.7 µg/mL (≈ 149 µM)
Cc1cc(NC(=O)NC(C)(C(F)(F)F)C(F)(F)F)no1	> 45.8 µg/mL
CNC(=O)CSc1nnc(-c2ccco2)n1-c1cccc(C)c1C	> 51.4 µg/mL
CCN(CC)CCOCCOC(=O)C(CC)(CC)c1ccccc1	47.7 µg/mL (≈ 142 µM)
CCC(C)(C)NC(=S)Nc1ccccc1C	> 35.5 µg/mL
CCOc1ccc(N2C(=O)CC(C(C)c3ccccc3)C2=O)cc1 (stereo unspecified)	5.7 µg/mL (≈ 17.6 µM)
N#Cc1c(N2CCNCC2)nc(-c2ccco2)c2c1CCCC2	> 46.3 µg/mL
CCOc1ccccc1NC(=O)NC1Cc2ccccc2C1	< 0.3 µg/mL
CC(=O)c1cccc(Nc2nc(-c3sc(C)nc3C)cs2)c1	1 µg/mL (≈ 3.04 µM)
CN(C)/C=C1/NC(=S)NC1=O	> 25.7 µg/mL
COc1ccc(CNC(=O)COC(=O)C(CCSC)N2C(=O)c3ccccc3C2=O)cc1 (stereo unspecified)	> 68.5 µg/mL
COc1ccc(NC(=O)COCC(=O)Nc2ccc(C)cc2)cc1	44.3 µg/mL (≈ 135 µM)
O=C(O)c1ccccn1	> 18.5 µg/mL
COc1cc(-c2noc(C)n2)cc(OC)c1OC	35.7 µg/mL (≈ 143 µM)
O=C(O)CCNC(=O)C12CC3CC(CC(C3)C1)C2	> 37.7 µg/mL
N#Cc1ccc(NC(=O)c2cc(=O)c3ccccc3o2)cc1	0.8 µg/mL (≈ 2.76 µM)
Cn1c(=O)c(C(=O)NCCCc2ccccc2)c(O)c2ccccc21	< 0.4 µg/mL
CC(C)CCn1c2ccccc2c2cc(CC(N)=O)ccc21	0.4 µg/mL (≈ 1.36 µM)
C=CCc1cc(C)ccc1OCCCn1ccnc1.O=C(O)C(=O)O	29.1 µg/mL
COC(=O)C(O)(c1ccc(N(C)C)cc1)C(F)(F)F (stereo unspecified)	38 µg/mL (≈ 137 µM)
CC1CN(c2ccc(Cl)cc2)c2nc3c(c(=O)[nH]c(=O)n3C)n2C1 (stereo unspecified)	1.2 µg/mL (≈ 3.47 µM)
Cc1cc(=O)[nH]c(SCC(=O)N2CC3(C)CC2CC(C)(C)C3)n1 (stereo unspecified)	> 50.3 µg/mL

Now from value to molecule:

solubility kinetic	SMILES
0.6 µg/mL (≈ 1.85 µM)	Cc1ccnc(N2CCCC(C(=O)Nc3cccc(C)c3C)C2)n1 (stereo unspecified)
50 µg/mL (≈ 140 µM)	COc1ccc(S(=O)(=O)Nc2cc3c4c(c2)CC(=O)N4CCC3)cc1
> 45.4 µg/mL	CN(CCN1CCOCC1)Cc1nc(-c2ccccc2)no1
3.1 µg/mL (≈ 9.71 µM)	CCOC(=O)c1ccccc1NC(=O)COC(=O)C1CCCC1
40.2 µg/mL (≈ 146 µM)	O=C(NCCCl)C1Cc2c(ccc3ccccc23)O1 (stereo unspecified)
> 47.9 µg/mL	O=C(c1ccc(N2CCOCC2)c([N+](=O)[O-])c1)N1CCCCC1
< 0.8 µg/mL	S=C(c1ccc(-c2ccc(Br)cc2)o1)N1CCOCC1
> 47.5 µg/mL	CC(C)(C)c1ccc2c(c1)N(CC(=O)N1CCCC1)C(=O)CO2
> 42.7 µg/mL	Cc1ccc(C(=O)N2CCN(Cc3ccccc3)CC2)o1
24.4 µg/mL (≈ 101 µM)	O=[N+]([O-])c1cc(Cl)ccc1N1CCOCC1
2.8 µg/mL (≈ 10.8 µM)	S=C1NC2(CCCCCC2)N=C1c1ccccc1
> 49 µg/mL	O=C(NCC(=O)N1CCCCCC1)c1ccc(OC(F)F)cc1
3.7 µg/mL (≈ 8.84 µM)	O=C(/C=C/c1cccc(C(F)(F)F)c1)OCC(=O)N1CCN(c2ccccc2)CC1
> 50.3 µg/mL	COC(=O)c1ccc(NC(=S)NCCCN2CCCC2=O)cc1
20.9 µg/mL (≈ 115 µM)	O=C1CCNc2c(Cl)cccc21
1.1 µg/mL (≈ 3.42 µM)	Cc1cc(C(C)(C)C)oc1C(=O)OCC(=O)NC1CCCCC1

solubility kinetic	SMILES
0.6 µg/mL (≈ 2.19 µM)	Cc1ccc(NC(=S)NCCC2=CCCCC2)cc1
> 32 µg/mL	CC(=O)c1ccc(-n2ccc(=O)cc2)cc1
7.4 µg/mL (≈ 24.4 µM)	O=c1c2[nH]c3cccc(Cl)c3c2ncn1CC1CCCO1 (stereo unspecified)
20.6 µg/mL	CN(C)C(CNS(=O)(=O)c1cc([N+](=O)[O-])ccc1Cl)c1ccco1.Cl (stereo unspecified)
17.6 µg/mL (≈ 57.8 µM)	CCc1ccnc(NS(=O)(=O)c2ccc3c(c2)CCO3)c1
41.9 µg/mL (≈ 144 µM)	COC(=O)C1CCCN1C(=O)C12CC3CC(CC(C3)C1)C2 (stereo unspecified)
37.7 µg/mL (≈ 137 µM)	CCOc1ccc(C(=O)NCc2ccco2)cc1OC
> 52.1 µg/mL	O=S1(=O)CC2NC(=S)N(c3cccc(Br)c3)C2C1 (stereo unspecified)
0.9 µg/mL (≈ 2.62 µM)	CCN1C(=O)/C(=C2\SC(N3CCOCC3)=NC2=O)c2ccccc21
> 51.4 µg/mL	COC(=O)c1nccnc1C(=O)Nc1ccccc1N1CCOCC1
> 56.5 µg/mL	Cc1onc(-c2ccccc2Cl)c1C(=O)OCC(=O)N1CCC(C)CC1
> 47.2 µg/mL	O=C(COc1ccc([N+](=O)[O-])cc1Cl)NCC1CCCO1 (stereo unspecified)
< 0.4 µg/mL	COc1ccc(C(=O)Nc2ccc3c(c2)OCCO3)cc1[N+](=O)[O-]
4.1 µg/mL (≈ 10.5 µM)	O=C(Nc1ccccc1F)c1ccc(CN2CCN(c3ccccc3)CC2)cc1
47.8 µg/mL (≈ 136 µM)	Cc1ccccc1CN1CCN(CC(=O)NC(C)c2ccccc2)CC1 (stereo unspecified)
> 46 µg/mL	Br.Clc1ccc(CNCC2CCCO2)cc1 (stereo unspecified)
